Legend:
[1] = test system: Mtb-infected mouse lungs; assay: Genome-wide lung transcriptome (microarray, IPA network/GO analysis) of Mtb-infected mice; format: in vivo; conditions: TNF-a regulon network
[2] = test system: Pde4; assay: qPCR of host Pde4 gene expression in Mtb-infected mouse lungs; format: in vivo, mice; conditions: 14 days of treatment (28 days postinfection)
Protocol: Total lung RNA (200 ng) was reverse-transcribed using Sprint RT kit (Clontech, CA, USA); 10 ng of cDNA were used for quantitative real-time PCR (qPCR), with Brilliant II SYBR master mix (Agilent Technologies, CA, USA) and gene-specific primers in a Stratagene Mx3005P instrument (Agilent Technologies, CA, USA). ROX was included in each reaction as an internal control. The qPCR assay was performed using four mouse samples in duplicate per group; the data were analyzed using MxPro Software (Agilent Technologies, CA, USA). Transcript levels of Gapdh were used as a reference against the test genes. Fold change in gene expression was calculated using the formula 2^−ΔΔCt, where ΔCt is the difference in threshold cycle (Ct) between the target gene and Gapdh; and ΔΔCt is the […] between untreated and CC-11050-treated samples. Primers were designed based on nucleotide sequences obtained from PrimerBank.^3

In the case of `CCOc1cc([C@@H](CS(C)(=O)=O)N2Cc3cccc(NC(=O)C4CC4)c3C2=O)ccc1OC` [CC-11050, N-[2-[(1S)-1-(3-ethoxy-4-methoxyphenyl)-2-(methylsulfonyl)ethyl]-2,3-dihydro-3-oxo-1H-isoindol-4-yl]-(9Cl) cyclopropanecarboxamide], the Ins1 expression [1] is reported as 0 and the “Pde4Bv3 (Pde4B variant 3) expression in lungs versus Mtb-infected untreated” value [2] is reported as “No significant change”.
